Source: publication PMC12677699, “Utilizing Proteolytic‐Resistant Nano‐Short Peptide Based on Naphthyl Tail‐Anchored to Combat Bacterial Infections” (Advanced Science, 2025)

Key:
[1] = Critical aggregation concentration, 1,8-ANS fluorescence; format: physicochemical; conditions: 1,8-ANS 1 × 10^−6 M, peptide 2-256 × 10^−6 M in deionized water, 1 h, ex 360 nm, em 420–670 nm, linear fitting of fluorescence intensities
Protocol: The self‐assembly behavior of nano‐short peptides was characterized by determining the CAC using 1,8‐ANS as a hydrophobic fluorescent probe.^[ [32] ^] Serial peptide dilutions (2‐256 × 10^−6 M in 50 µL deionized water) were prepared in 96‐well plates. 1,8‐ANS powder was solubilized in dimethylformamide (DMF) and added to the 96‐well plates (final concentration of 1 × 10^−6 M), and deionized water solution containing 1,8‐ANS was used as a blank control. After incubation for 1 h, the fluorescence emission spectra were continuously monitored with a microplate reader (Tecan Infinite200 Pro, λ excitation = 360 nm, λ emission = 420–670 nm). CAC values were determined by linear fitting of representative fluorescence intensities.

S. aureus ATCC 29213 = assay: Drug resistance assay, 30 serial passages; format: cell-based, Staphylococcus aureus; conditions: S. aureus ATCC 29213, 30 successive passages at sub-MIC concentrations; gentamicin by day 17
Protocol: The potential resistance development of nano‐short peptides was evaluated through 30 serial passages of E. coli ATCC 25922 and S. aureus ATCC 29213 in sub‐MIC conditions,^[ [38] ^] using gentamicin as control.

E. coli ATCC 25922 = assay: Intracellular ATP determination; format: cell-based, Escherichia coli; conditions: 16 × 10^−6 M, E. coli ATCC 25922, 1 h, 37 °C; n = 3
Protocol: The intracellular ATP levels of E. coli ATCC 25922 and S. aureus ATCC 29213 after nano‐short peptides treatment were detected using an Enhanced ATP Assay Kit.^[ [59] ^] Logarithmic growth stage E. coli ATCC 25922 and S. aureus ATCC 29213 bacterial solutions were diluted to OD600 = 0.4 in MHB liquid medium. Then, the bacterial dilutions were co‐incubated with different concentrations of nano‐short peptides at 37 °C for 1 h. After incubation, the bacterial dilutions were centrifuged (12 000 rpm, 5 min, 4 °C) to pellet the cells. The resulting bacterial pellets were processed according to the steps in the kit. Finally, the chemiluminescence was detected by a microplate reader.

in vitro = conditions: female, ICR, mouse, serum
Protocol: N4 was incubated with serum isolated from mice for different durations (0, 1, 2, 4, 8, 12 h), followed by RP‐HPLC analyses to determine the retention rate.^[ [48] ^]

E. coli = assay: In vivo peritonitis-sepsis model; design: species or system mouse; conditions: 14 h, n = 8
Protocol: The mice used in the peritonitis‐sepsis model were consistent with those employed in the in vivo toxicity assessment. Twenty‐four mice were randomly divided into three groups after a 3‐day pre‐feeding period. The mice in the control group received intraperitoneal injections of 100 µL of saline, followed by an additional 100 µL of saline 1 h later. The mice in the other two groups were administered intraperitoneal injections of 100 µL of a saline‐diluted E. coli suspension (OD600 = 0.6), and subsequently received either 100 µL of saline (E. coli‐infected group) or 10 mg kg^−1 of N4(N4‐treated group) 1 h later. 14 h post‐infection, the mice were euthanized via ether inhalation anesthesia, and blood samples were collected from the orbital vein for the analysis of inflammatory factors (IL‐1β, IL‐6, TNF‐α, and IL‐10).^[ [71] ^] In addition, peritoneal fluid was aseptically collected via peritoneal lavage with sterile saline. The liver, spleen, and kidneys were harvested, weighed, and homogenized. Homogenized samples were plated on Mueller‐Hinton agar (MHA) solid medium for overnight incubation, and bacterial load was quantified the next day. Sections of the liver, spleen, and kidneys were obtained for histological analysis employing H&E staining. Besides, the spleens were specifically selected for immunofluorescence analysis to assess the expression levels of IL‐10, TNF‐α, CD206, and CD86.

MRSA = assay: MRSA-mediated skin infection model; format: in vivo, mouse; design: bacterial load in skin tissue, Day 5 / bacterial load in skin tissue, Day 9: dose or concentration left out as unconfirmed; conditions: MRSA wound, n = 8
Source text: The mouse skin infection model was based on previous research with some modifications.^[ [62] ^] The mice utilized in the […] were consistent with those employed in the in vivo toxicity assessment. Forty‐eight mice were randomly divided into three groups after a 3‐day pre‐feeding period, including control, N4‐treated and MRSA‐infected groups. Initially, the dorsal regions of the mice were depilated (Day ‐1). On the following day (Day 0), circular incisions were made on the dorsal surfaces, and 10 µL of saline‐diluted MRSA suspension (OD600 = 0.2) was applied to the wounds of the mice in N4‐treated and MRSA‐infected groups, while an equivalent volume of saline was administered to the wounds in the control mice. […] The above treatments were repeated after […] (Day 3). Throughout the experimental period, representative images of the wounds were captured.
Mice were euthanized on Days 5 and 9 post‐infection, and skin tissue homogenates were quantified for bacterial load. Subsequently, the supernatants of skin tissue homogenates from mice on Day 9 were selected for the detection of inflammatory factors, and wound tissues were collected for histological, Masson and immunofluorescence analyses.

[2] = N4 10 mg kg^−1 i.p., vs infected group, p < 0.05
[3] = Day 9, vs infected group, p < 0.05

## N=C(N)NCCC[C@H](NC(=O)[C@@H](CCCNC(=N)N)NC(=O)[C@H](Cc1cccc2ccccc12)NC(=O)[C@H](Cc1cccc2ccccc12)NC(=O)[C@H](Cc1cccc2ccccc12)NC(=O)[C@@H](N)Cc1cccc2ccccc12)C(=O)N[C@@H](CCCNC(=N)N)C(=O)N1CCC[C@H]1C(=O)O (stereo in doubt) [Peptide N4]
[1]
  critical aggregation concentration (CAC): 5.78 µM
S. aureus ATCC 29213
  increase in MIC values after serial passage: remained largely unchanged
E. coli ATCC 25922
  ATP levels decreased to: 66.07%
In vitro
  remaining at 4 h: > 50%
  remaining at 12 h: 8.1%
E. coli; E. coli peritonitis-sepsis, N4 10 mg kg^−1 i.p. 1 h after infection, infected group 6.62
  bacterial load, kidney: 5.96 log10 CFU g^−1
E. coli; E. coli peritonitis-sepsis, N4 10 mg kg^−1 i.p. 1 h after infection, infected group 6.87
  bacterial load, liver: 6.07 log10 CFU g^−1
E. coli; E. coli peritonitis-sepsis, N4 10 mg kg^−1 i.p. 1 h after infection, infected group 6.97
  bacterial load, spleen: 6.28 log10 CFU g^−1
E. coli; E. coli peritonitis-sepsis, N4 10 mg kg^−1 i.p. 1 h after infection, infected group 7.48
  bacterial load, peritoneum: 6.37 log10 CFU
E. coli; [2]
  serum levels of anti-inflammatory cytokine IL-10: increased
  serum levels of pro-inflammatory cytokines (IL-1β, IL-6, TNF-α): significant decreased
MRSA; 10 µL of N4, twice a day on Day 1 and Day 3, topical, infected group 6.89
  bacterial load in skin tissue, Day 9: 6.12 log10 CFU g^−1
MRSA; 10 µL of N4, twice a day on Day 1 and Day 3, topical, infected group 7.1
  bacterial load in skin tissue, Day 5: 6.59 log10 CFU g^−1
MRSA; [3]
  anti-inflammatory cytokine IL-10 in supernatant of skin tissues: significant increase
  pro-inflammatory cytokines (IL-1β, IL-6, TNF-α) in supernatant of skin tissues: significant decrease
